From patent US12419890B2, “Administration of sumo-activating enzyme inhibitor and checkpoint inhibitors” (Takeda Pharmaceutical Company Limited, priority 2019, dated 2025)

Key:
[1] = tested on: A20 syngeneic mouse B-cell lymphoma-derived subcutaneous tumor; assay: A20 Study 3: mouse A20 syngeneic tumor model, individual tumor volume; assay type: in vivo
Method: A20 Study 3: A20 is a mouse B-cell lymphoma cell line. A20 mouse syngeneic tumor model was generated by subcutaneous inoculation with 1.0×10^6 A20 cells (cell suspension) in 8 weeks old female BALB/c mice (Jackson Laboratory, 600 Main St, Bar Harbor, ME) in the flank. When the mean tumor volume reached approximately 50 mm^3, the animals were randomized into one vehicle control and three treatment groups (n=7/group). Mice were then dosed with 20% HPbCD or Compound I-263a or anti-mouse PD-1 antibody over a 11-day period. Tumor growth and body weight were measured twice per week during the treatment and post-treatment periods, and mice were humanely euthanized once they had reached their humane endpoint.
(§1) Study 3: A 1.65 mg/mL stock solution of Compound I-263a was formulated weekly in 20% HPβCD and administered intravenously (IV) based on exact animal body weight on each day of treatment, using a dosing volume of 10 mL/kg body weight. Final doses received were 15 mg/kg. Dosing volume for Compound I-263a was 0.2 mL. […]
(§2) Tumors were measured twice weekly using vernier calipers. Tumor volumes were calculated using standard equation: V=W^2×L/2, where V=volume, W=width, and L=length for the tumor. […] Tumor size and body weight were measured twice a week for the duration of the study. […]

[2] = tested on: WEHI-3 syngeneic mouse myelomonocytic leukemia-derived subcutaneous tumor; assay: WEHI-3 Study 4: mouse WEHI-3 syngeneic tumor model, individual tumor volume; assay type: in vivo; settings: Compound I-263a 7.5 mg/kg IV BIWx3
Method: WEHI-3 Study 4: WEHI-3 is a mouse myelomonocytic leukemia cell line. WEHI-3 mouse syngeneic tumor model was generated by subcutaneous inoculation with 0.1×10^6 WEHI-3 cells (cell suspension) in 13 weeks old female BALB/c mice (Jackson Laboratory, 600 Main St, Bar Harbor, ME) in the flank. When the mean tumor volume reached approximately 50 mm^3, the animals were randomized into one vehicle control and five treatment groups (n=8/group). Mice were then dosed with 20% HPbCD or Compound I-263a or anti-mouse PD-1 antibody or anti-mouse CTLA-4 antibody over a 21-day period. Tumor growth and body weight were measured twice per week during the treatment and post-treatment periods, and mice were humanely euthanized once they had reached their humane endpoint.
as §1, with “4:” for “3:”, “1.01” for “1.65”, “7.5” for “15”
as §2

Structure (SMILES): Cc1sc(C(=O)c2cncnc2N[C@@H]2C[C@H](COS(N)(=O)=O)[C@@H](O)C2)cc1[C@@H]1NCCc2ccc(Cl)cc21 [Compound I-263a, [(1R,2S,4R)-4-{[5-({4-[(1R)-7-chloro-1,2,3,4-tetrahydroisoquinolin-1-yl]-5-methyl-2-thienyl}carbonyl)pyrimidin-4-yl]amino}-2-hydroxycyclopentyl]methyl sulfamate]
- inhibition of tumor growth ([1]; Compound I-263a 15 mg/kg IV QWx1 (Day 1), 7 tumors/group): modest inhibition
- tumors in stasis ([1]; stasis to day 8 of treatment, followed by rapid growth, out of 7 implanted, Compound I-263a 15 mg/kg IV Day 1): 2
- effect on tumor growth ([2]; 8 tumors/group): very little effect
- slight tumor growth delays ([2]; delay to day 14, out of 8 implanted tumors): 2
